# In patent US20250145631A1, “HETEROCYCLIC COMPOUND ACTING ON G12D MUTANT KRAS PROTEIN” (Astellas Pharma Inc., priority 2022, published 2025):
# Structures can show the parent of a compound that is named as a salt.
# What was measured:
# Type in all cases: cell-based
# [1] = tested on: phosphorylation of ERK (Thr202/Tyr204); experiment: ERK phosphorylation inhibitory effect by Cell ELISA in AsPC-1 cells (Test Example 2); conditions: Homo sapiens, ASPC1, overnight treatment, Cell ELISA, read-out: IC50 (ERK phosphorylation inhibition)
# Protocol: The ERK phosphorylation inhibitory effect of test compounds was evaluated by measuring phosphorylation of threonine 202 (Thr202) and tyrosine 204 (Tyr204) of ERK located downstream of the KRAS signal by Cell ELISA.
# AsPC-1 cells were seeded on 384-well plates at 20 µL/well to give 2.0×10^4 cells per well. As for the cell culture conditions, RPMI 1640 medium containing 10% fetal bovine serum was used in the presence of 5% CO2 at 37° C.
# The next day, the test compounds (10 points having final concentrations in the range of 10 μM to 0.3 nM), trametinib (MEK inhibitor) of a final concentration of […] as positive control and DMSO, which was the solvent for the test compounds, as negative control were diluted 500-fold with a fresh medium and were added at 20 μL per well. The cells were cultured overnight. After culturing, 30% glyoxal solution (40% glyoxal [from Nacalai Tesque]was diluted with PBS) was quickly added at 30 μL per well, and the plates were allowed to stand for 120 minutes at room temperature to thus immobilize the cells. Then, the plates were centrifuged to remove the supernatant (using a centrifugal dehydrator machine, the supernatant was removed by the same method hereinafter), and 0.10% Triton X-100-containing PBS was added at 20 μL per well. After allowing to stand for 10 minutes at room temperature, the supernatant was removed, and the same operation was further repeated. Next, 0.5% SDS-containing PBS was added at 20 μL per well, and after allowing to stand at room temperature for 30 minutes, the supernatant was removed. Subsequently, blocking solution (Intercept Blocking Buffer) was added at 20 μL per well, and the plates were allowed to stand for 1 hour at room temperature. The supernatant was removed, and an ERK (Thr202/Tyr204) phosphorylation antibody (Phospho-p44/42 MAPK (Erk 1/2) (Thr202/Tyr204) (D13.14.4E) XP Rabbit mAb; from Cell Signaling Technology) diluted 2,500-fold with blocking solution was added at 15 μL per well as a primary antibody. The plates were allowed to stand at 4° C. overnight.
# The next day, the supernatant was removed. 0.05% Tween-20 (from Thermo Fisher Scientific)-containing PBS was added at 50 μL per well, and the supernatant was removed to thus wash each well. The washing was performed three times in total. After washing, Goat anti-Rabbit IgG H&L (IRDye 800CW) diluted 1,000-fold with blocking solution was added at 15 μL per well as a secondary antibody, and the plates were allowed to stand for 1 hour at room temperature. The supernatant was removed, and each well was washed three times with 0.05% Tween-20-containing PBS in the same manner as after the primary antibody reaction. After removing the supernatant, the plates were dried with air at room temperature for 3 hours or more, and the 800-nm fluorescent signals were measured with Aerius.
# With the signaling value at the time of addition of DMSO taken as 100% and with the signaling value at the time of addition of […] trametinib taken as 0%, the 50% inhibitory concentration values (IC50) were calculated by Sigmoid-Emax nonlinear regression analysis. The calculated 50% inhibition represents the inhibition at the highest concentration evaluated (10 μM) for a compound that exceeds the concentration in the evaluation range.
# (§1) In the tables presented below, Ex represents Example No. The IC50 of Ex. 13, Ex. 15, and Ex. 16 were calculated using the molecular weights as tetrahydrochloride, and the IC50 of Ex. 14 was calculated using the molecular weight as trihydrochloride.
# KRAS G12D = biological target: T1, KRAS G12D (Homo sapiens, UniProt P01116, G12D); experiment: KRAS degradation activity by Cell ELISA in AsPC-1 cells (Test Example 1); conditions: for Dmax: ASPC1, overnight treatment, read-out: Dmax (degradation rate at the concentration showing highest degradation); for Dmax / DC50: Cell ELISA; for DC50: overnight treatment, read-out: DC50 (50% degradation concentration of KRAS)
# T1 construct: host or cells: AsPC-1 (human pancreatic cancer line)
# T1 sequence (P01116 1-188 isoform P01116-2 G12D): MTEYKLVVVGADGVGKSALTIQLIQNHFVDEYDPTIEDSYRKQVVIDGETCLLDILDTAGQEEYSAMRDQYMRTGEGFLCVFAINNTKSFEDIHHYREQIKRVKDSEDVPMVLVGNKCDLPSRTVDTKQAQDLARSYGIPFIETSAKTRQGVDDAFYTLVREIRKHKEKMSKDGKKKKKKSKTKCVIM
# Protocol: The KRAS degradation activity of test compounds was evaluated by measuring the expression levels of KRAS G12D by Cell ELISA.
# AsPC-1 cells were seeded at 20 μL per well on 384-well plates (from Greiner bio-one) to give 2.0×10^4 cells per well. As for the cell culture conditions, RPMI 1640 (from Sigma-Aldrich) medium containing 10% fetal bovine serum (from Cytiva) was used in the presence of 5% CO2 at 37° C.
# The next day, the test compounds (10 points having final concentrations in the range of 10 μM to 0.3 nM) and DMSO (from FUJIFILM Wako Pure Chemical Corporation), which was the solvent for the test compounds, as a negative control were diluted 500-fold with a fresh medium and were added at 20 μL per well. The cells were cultured overnight. The next day, the culture supernatant was removed, and 4% paraformaldehyde phosphate buffer (from FUJIFILM Wako Pure Chemical Corporation) was added at 20 μL per well. The plates were allowed to stand for 30 minutes at room temperature to thus immobilize the cells. Then, the supernatant was removed, and 0.1% Triton X-100 (from Amersham Biosciences)-containing Phosphate buffered saline (PBS; from FUJIFILM Wako Pure Chemical Corporation) was added at 20 μL per well. After allowing to stand for 10 minutes at room temperature, the supernatant was removed. PBS was added at 25 μL per well, and the supernatant was removed to thus wash each well. The washing was performed twice in total. Next, the supernatant was removed, and 0.5% sodium dodecyl sulfate (SDS; from Invitrogen)-containing PBS was added at 20 μL per well. After allowing to stand at room temperature for 10 minutes, the supernatant was removed by a centrifugal operation (using a centrifugal dehydrator machine, the supernatant was removed by the same method hereinafter). PBS was added at 25 μL per well, and the supernatant was removed to thus wash each well. The washing was performed twice in total. The supernatant was removed, and blocking solution (Intercept Blocking Buffer; from Li—COR Biosciences) was added at 20 μL per well. After allowing to stand for 30 minutes at room temperature, the supernatant was removed, and a solution obtained by diluting anti-β-actin antibody (Anti-beta Actin antibody [mAbcam 8226]-Loading Control; from abcam) 1,000-fold with blocking solution and a solution obtained by diluting anti-Ras (G12D Mutant Specific) antibody (Ras (G12D Mutant Specific) (D8H7) Rabbit mAb #14429; from Cell Signaling Technology) and anti-β-actin antibody (from abcam) 1,000-fold with blocking solution were respectively added to positive control wells and the other wells at 15 μL per well as a primary antibody. The plates were allowed to stand overnight at 4° C.
# The next day, the supernatant was removed. PBS was added at 25 μL per well, and the supernatant was removed to thus wash each well. The washing was performed twice in total. The supernatant was removed, and a solution obtained by diluting Donkey anti-Mouse IgG H&L (IRDye 680RD) (from Li—COR Biosciences) and Goat anti-Rabbit IgG H&L (IRDye 800CW) (from Li—COR Biosciences) 1,000-fold with blocking solution was added at 15 μL per well as a secondary antibody. A solution obtained by diluting Donkey anti-Mouse IgG H&L (IRDye 680RD) (from Li—COR Biosciences) 1,000-fold with blocking solution was added to a positive control well as a secondary antibody. After allowing to stand for 1 hour at room temperature, the supernatant was removed. PBS was added at […], and the supernatant was removed to thus wash each well. The washing was performed twice in total. After removing the supernatant, the plates were dried with air at room temperature for 2 hours or more, and the 700 nm and 800 nm fluorescent signals were measured with Aerius (from Li—COR Biosciences). […]
# [2] = tested on: human G12D mutant KRAS-positive pancreatic cancer line AsPC-1; experiment: Non-anchorage-dependent cell growth inhibitory effect, spheroid 3D culture (Test Example 3); conditions: ASPC1, 144 h, AsPC-1 spheroid 3D culture, 6 days, CellTiter Glo 2.0, read-out: IC50 (non-anchorage-dependent cell growth inhibition)
# Protocol: The non-anchorage-dependent cell growth inhibitory effect of test compounds was evaluated by spheroid 3D cell culture.
# AsPC-1 cells were seeded on low-cell-adhesive round bottom 384-well plates (PrimeSurface: from Sumitomo Bakelite) at 20 μL (or […])/well to give 5×10^2 cells per well. As for the cell culture conditions, RPMI 1640 medium containing 10% fetal bovine serum was used in the presence of 5% CO2 at 37° C.
# The next day, the test compounds (10 points or 6 points having final concentrations in the range of 10 μM to 0.3 nM) and DMSO, which was the solvent for the test compounds, as a negative control were diluted 500-fold (or 100-fold) with a fresh medium and were added at 20 μL (or […]) per well. After culturing in the presence of 5% C02 at 37° C. for 6 days, CellTiter Glo 2.0 (from Promega) was added at 20 μL per well. After stirring with a plate mixer (from FINEPCR) at normal temperature for 1 hour, the luminescent signals were measured with ARVO X3 (from PerkinElmer).
# With the signaling value in treatment with DMSO taken as 100% and with the signaling value in the medium alone without cells taken as 0%, the 50% inhibitory concentration values (IC50) were calculated by Sigmoid-Emax nonlinear regression analysis. The calculated 50% inhibition represents the inhibition at the highest concentration evaluated (10 μM) for a compound that exceeds the concentration in the evaluation range.
# as §1
IC50 [1] [nM],Dmax (KRAS G12D) [%],DC50 (KRAS G12D) [nM],IC50 [2] [nM],degradation rate at the highest concentration evaluated (printed in DC50 column) (KRAS G12D; at 10 μM) [% at 10 μM],SMILES
1560,61,2810,1090,,"Cc1c(F)cc2[nH]ncc2c1-c1c(C2CC2)cc2c(N3C[C@@H]4C[C@H]3CN4)nc(OC3CCOCC3)nc2c1OCc1ccc(C(=O)N2CCN(Cc3cccc4c(N5CCC(=O)NC5=O)nn(C)c34)CC2)cc1 (atropisomer, axis not shown) [Example 23]"
231,78,297,223,,"Cc1c(F)cc2[nH]ncc2c1-c1c(C2CC2)cc2c(N3C[C@@H]4C[C@H]3CN4)nc(OC3CCOCC3)nc2c1OCc1ccc(C(=O)N2CCN(Cc3ccc4c(N5CCC(=O)NC5=O)nn(C)c4n3)C[C@@H]2C)cc1 (atropisomer, axis not shown) [Example 24]"
668,70,856,460,,"CC[C@H]1CN(Cc2ccc3c(N4CCC(=O)NC4=O)nn(C)c3c2)CCN1C(=O)c1ccc(COc2c(-c3c(C)c(F)cc4[nH]ncc34)c(C3CC3)cc3c(N4C[C@@H]5C[C@H]4CN5)nc(OC4CCOCC4)nc23)cc1 (atropisomer, axis not shown) [Example 25]"
2020,67,5220,1350,,"Cc1c(F)cc2[nH]ncc2c1-c1c(C2CC2)cc2c(N3C[C@@H]4C[C@H]3CN4)nc(OC3CCOCC3)nc2c1OCc1ccc(C(=O)N2CCN(Cc3ccc(CN4CCC(=O)NC4=O)cc3F)C[C@@H]2C)cc1 (atropisomer, axis not shown) [Example 26]"
2770,25,,1890,25,"Cc1c(F)cc2[nH]ncc2c1-c1c(C2CC2)cc2c(N3C[C@@H]4C[C@H]3CN4)nc(OC3CCOCC3)nc2c1OCc1ccc(C(=O)N2CCN(Cc3ccc4c(c3)c(N3CCC(=O)NC3=O)nn4C)C[C@@H]2C)cc1 (atropisomer, axis not shown) [Example 27]"
2190,54,5530,2020,,"Cc1c(F)cc2[nH]ncc2c1-c1c(C2CC2)cc2c(N3C[C@@H]4C[C@H]3CN4)nc(OC3CCOCC3)nc2c1OCc1ccc(C(=O)N2CCN(CCOc3cccc(N4CCC(=O)NC4=O)c3)CC2)cc1 (atropisomer, axis not shown) [Example 28]"
69,78,46,60,,"Cc1c(F)cc2[nH]ncc2c1-c1c(C2CC2)cc2c(O[C@H]3CCNC3)cc(OC[C@H]3CCCO3)nc2c1OCc1ccc(C(=O)N2CCN(Cc3ccc4c(c3)n(C)c(=O)n4C3CCC(=O)NC3=O)C[C@@H]2C)cc1 (atropisomer, axis not shown) [Example 32]"
365,89,294,399,,"Cc1c(F)cc2[nH]ncc2c1-c1c(C2CC2)cc2c(N3C[C@@H]4C[C@H]3CN4)nc(OC3CCOCC3)nc2c1OCc1ccc(C(=O)N2CCN(CCc3ccc4c(c3)c(N3CCC(=O)NC3=O)nn4C)C[C@@H]2C)cc1 (atropisomer, axis not shown) [Example 42]"
158,86,71,73,,"Cc1c(F)cc2[nH]ncc2c1-c1c(C2CC2)cc2c(N3C[C@@H]4C[C@H]3CN4)nc(OC3CCOCC3)nc2c1OCc1ccc(C(=O)N2CCN(Cc3ccc4c(N5CCC(=O)NC5=O)nn(C)c4c3)C[C@@H]2C)cc1 (atropisomer, axis not shown; (M)) [Example 16, 1-(6-{[(3S)-4-{4-[({(7M)-6-cyclopropyl-4-[(1S,4S)-2,5-diazabicyclo[2.2.1]heptan-2-yl]-7-(6-fluoro-5-methyl-1H-indazol-4-yl)-2-[(oxan-4-yl)oxy]quinazolin-8-yl}oxy)methyl]benzoyl}-3-methylpiperazin-1-yl]methyl}-1-methyl-1H-indazol-3-yl)-1,3-diazinane-2,4-dione n hydrochloride]"
